One data set relates to MCF7/VP cells. Description: Sensitization of MRP1-expressing MCF7/VP cells to chemotherapeutic drugs (methylene blue assay). Particulars: for folds of sensitization of MCF7/VP cells to cisplatin: cisplatin is not an MRP1 substrate; for folds of sensitization of MCF7/VP cells to doxorubicin / folds of sensitization of MCF7/VP cells to etoposide / folds of sensitization of MCF7/VP cells to vincristine: ratio of LD50 in the presence and in the absence of the compound. The format is cell-based. As for the experimental part: Cells in 96-well plates (5×10^3 per well) were incubated with different concentrations of vincristine in the presence of 5 μM of the candidate compounds for 3 days. Cell numbers then were estimated using methylene blue assay. […] Verapamil (10 μM) was used as control.
FIG. 6 illustrates the effect of the identified inhibitor compounds on cell sensitivity to doxorubicin and vincristine. Cells (with or without MRP1 expression) were incubated 24 hours with the indicated concentrations of vincristine or doxorubicin followed by incubation for additional 48 hours in drugfree media. Cell numbers were quantified by standard methylene blue assay.
(§1) Fold of sensitization is calculated as a ratio of LD50 in the presence and in the absence of the inhibitor compound (see FIG. 6).
FIG. 8 illustrates the effects of the identified inhibitor compounds on sensitivity of MRP1-positive and MRP1-negative cells to vincristine. Fold of sensitization again is calculated as the ratio of LD50 in the presence and in the absence of the inhibitor compound (see FIG. 6).
FIG. 9 illustrates the effects of the identified inhibitor compounds on sensitivity of MRP1-positive and MRP1-negative cells to etoposide. Fold of sensitization again is calculated as the ratio of LD50 in the presence and in the absence of the inhibitor compound (see FIG. 6).
FIG. 10 illustrates the effects of the identified inhibitor compounds on sensitivity of MRP1-positive and MRP1-negative cells to taxol and cisplatin. Fold of sensitization again is calculated as the ratio of LD50 in the presence and in the absence of the inhibitor compound (see FIG. 6).

For data set [1], the target named is T1, MRP1 (Homo sapiens, UniProt P33527).
T1 construct: MCF7/VP breast cancer cells (24), which have amplified and overexpressed MRP1, but negligible Pgp expression; endogenous in cells; host or cells: MCF7/VP (MCF7/VP clone 14) breast cancer cells
T1 sequence (P33527 whole entry): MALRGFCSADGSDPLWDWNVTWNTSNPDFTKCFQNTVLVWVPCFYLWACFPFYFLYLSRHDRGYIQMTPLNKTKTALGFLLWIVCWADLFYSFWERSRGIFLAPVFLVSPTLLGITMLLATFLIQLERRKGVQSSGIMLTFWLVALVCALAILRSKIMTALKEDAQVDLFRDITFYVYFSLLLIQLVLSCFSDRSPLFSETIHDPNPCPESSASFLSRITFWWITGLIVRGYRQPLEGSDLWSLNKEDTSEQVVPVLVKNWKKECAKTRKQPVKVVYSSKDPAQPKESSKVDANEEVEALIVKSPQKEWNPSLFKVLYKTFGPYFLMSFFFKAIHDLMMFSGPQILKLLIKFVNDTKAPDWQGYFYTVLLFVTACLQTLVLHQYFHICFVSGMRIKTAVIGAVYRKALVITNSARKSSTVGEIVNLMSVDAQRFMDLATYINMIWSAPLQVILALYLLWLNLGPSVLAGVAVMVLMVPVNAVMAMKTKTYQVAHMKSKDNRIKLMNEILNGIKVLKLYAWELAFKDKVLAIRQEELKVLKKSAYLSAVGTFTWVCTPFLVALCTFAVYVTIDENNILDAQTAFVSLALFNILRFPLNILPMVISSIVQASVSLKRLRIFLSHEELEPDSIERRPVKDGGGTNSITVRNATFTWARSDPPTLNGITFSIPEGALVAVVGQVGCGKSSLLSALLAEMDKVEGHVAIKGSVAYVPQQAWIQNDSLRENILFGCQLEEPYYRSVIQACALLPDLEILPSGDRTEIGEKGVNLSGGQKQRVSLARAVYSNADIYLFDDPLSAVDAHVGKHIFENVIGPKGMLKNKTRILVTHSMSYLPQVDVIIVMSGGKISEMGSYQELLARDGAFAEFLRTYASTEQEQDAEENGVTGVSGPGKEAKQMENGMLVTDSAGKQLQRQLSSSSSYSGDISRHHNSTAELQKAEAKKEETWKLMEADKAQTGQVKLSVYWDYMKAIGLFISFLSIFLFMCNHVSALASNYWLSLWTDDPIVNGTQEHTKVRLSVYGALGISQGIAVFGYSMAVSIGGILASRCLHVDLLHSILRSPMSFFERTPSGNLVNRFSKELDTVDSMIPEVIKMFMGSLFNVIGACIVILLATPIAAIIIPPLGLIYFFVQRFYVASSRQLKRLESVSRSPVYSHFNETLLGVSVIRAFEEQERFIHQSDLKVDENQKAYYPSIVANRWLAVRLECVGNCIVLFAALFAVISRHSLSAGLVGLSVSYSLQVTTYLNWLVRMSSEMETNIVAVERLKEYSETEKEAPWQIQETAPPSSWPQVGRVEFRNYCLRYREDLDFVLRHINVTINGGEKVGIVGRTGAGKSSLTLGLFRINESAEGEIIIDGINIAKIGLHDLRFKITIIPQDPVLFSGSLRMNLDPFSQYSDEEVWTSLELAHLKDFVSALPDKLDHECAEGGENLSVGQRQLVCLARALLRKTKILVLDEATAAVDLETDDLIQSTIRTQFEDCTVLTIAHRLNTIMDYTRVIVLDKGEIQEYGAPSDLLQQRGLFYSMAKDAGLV
Description: Sensitization to doxorubicin of cells expressing multidrug transporter MRP1. The format is cell-based. Particulars: ratio of LD50. As to the method: as §1
(§2) Fold of sensitization again is calculated as the ratio of LD50 in the presence and in the absence of the inhibitor compound (see FIG. 6).

The target in another data set is MRP2 (Homo sapiens, UniProt Q92887). Description: Sensitization to doxorubicin of cells expressing multidrug transporter MRP2. The format is cell-based. To be noted: ratio of LD50. As for the experimental part:
as §1, §2

In the next data set the target is MDR1 (Homo sapiens, UniProt P08183). As to the method:
as §1, §2

Another data set has as its system MDR3. Description: Sensitization to doxorubicin of cells expressing multidrug transporter MDR3. Type of data set: cell-based. Particulars: ratio of LD50. As to the method:
as §1, §2

For data set [2], the target named is T1, MRP1. Briefly: Daunorubicin retention / efflux assay (FIG. 12). To be noted: daunorubicin 2 hours with compound, then 1 hour drug-free medium; retained daunorubicin. The format is cell-based. As to the method:
FIG. 12 classifies the identified inhibitor compounds according to their strength as inhibitors of […] by MRP1. Cells were treated with daunorubicin in the presence of a test compound or a control for 2 hours, followed by incubation in fresh drug-free medium for 1 hour. Retained daunorubicin levels were measured to determine the effect of the inhibitor compounds on efflux activities.

In data set [3] the target is T1, MRP1. Description: Dose dependence of drug sensitization effect, 4H10 vs MK571 (FIG. 14). The format is cell-based. Particulars: three different lots of 4H10.
For the next data set, the system named is NB cells. Description: Direct toxicity toward NB cell lines (FIG. 18). Particulars: different lots of compound. The format is cell-based.
Data set [4] can be described thus: In vivo toxicity, mouse weight after single i.p. injection (FIG. 19). Particulars: up to 100 mg/kg. From the text: In particular, one parameter for testing toxicity is a weight loss of greater the […] of the body weight of a test mouse.
The next data set deals with NB. Briefly: In vivo efficacy in mouse model of NB in combination with chemotherapeutic agents (FIG. 20). From the text:
The test was a clinically relevant mouse model of NB that closely reflects the human disease (n=10, unless otherwise noted).

For a further data set, the system named is GL15 and 8 MG cell lines. Particulars: both glioma cell lines; cited from earlier work.

Each structure is given as a SMILES string.

MRP2, sequence (Q92887 whole entry, species assumed): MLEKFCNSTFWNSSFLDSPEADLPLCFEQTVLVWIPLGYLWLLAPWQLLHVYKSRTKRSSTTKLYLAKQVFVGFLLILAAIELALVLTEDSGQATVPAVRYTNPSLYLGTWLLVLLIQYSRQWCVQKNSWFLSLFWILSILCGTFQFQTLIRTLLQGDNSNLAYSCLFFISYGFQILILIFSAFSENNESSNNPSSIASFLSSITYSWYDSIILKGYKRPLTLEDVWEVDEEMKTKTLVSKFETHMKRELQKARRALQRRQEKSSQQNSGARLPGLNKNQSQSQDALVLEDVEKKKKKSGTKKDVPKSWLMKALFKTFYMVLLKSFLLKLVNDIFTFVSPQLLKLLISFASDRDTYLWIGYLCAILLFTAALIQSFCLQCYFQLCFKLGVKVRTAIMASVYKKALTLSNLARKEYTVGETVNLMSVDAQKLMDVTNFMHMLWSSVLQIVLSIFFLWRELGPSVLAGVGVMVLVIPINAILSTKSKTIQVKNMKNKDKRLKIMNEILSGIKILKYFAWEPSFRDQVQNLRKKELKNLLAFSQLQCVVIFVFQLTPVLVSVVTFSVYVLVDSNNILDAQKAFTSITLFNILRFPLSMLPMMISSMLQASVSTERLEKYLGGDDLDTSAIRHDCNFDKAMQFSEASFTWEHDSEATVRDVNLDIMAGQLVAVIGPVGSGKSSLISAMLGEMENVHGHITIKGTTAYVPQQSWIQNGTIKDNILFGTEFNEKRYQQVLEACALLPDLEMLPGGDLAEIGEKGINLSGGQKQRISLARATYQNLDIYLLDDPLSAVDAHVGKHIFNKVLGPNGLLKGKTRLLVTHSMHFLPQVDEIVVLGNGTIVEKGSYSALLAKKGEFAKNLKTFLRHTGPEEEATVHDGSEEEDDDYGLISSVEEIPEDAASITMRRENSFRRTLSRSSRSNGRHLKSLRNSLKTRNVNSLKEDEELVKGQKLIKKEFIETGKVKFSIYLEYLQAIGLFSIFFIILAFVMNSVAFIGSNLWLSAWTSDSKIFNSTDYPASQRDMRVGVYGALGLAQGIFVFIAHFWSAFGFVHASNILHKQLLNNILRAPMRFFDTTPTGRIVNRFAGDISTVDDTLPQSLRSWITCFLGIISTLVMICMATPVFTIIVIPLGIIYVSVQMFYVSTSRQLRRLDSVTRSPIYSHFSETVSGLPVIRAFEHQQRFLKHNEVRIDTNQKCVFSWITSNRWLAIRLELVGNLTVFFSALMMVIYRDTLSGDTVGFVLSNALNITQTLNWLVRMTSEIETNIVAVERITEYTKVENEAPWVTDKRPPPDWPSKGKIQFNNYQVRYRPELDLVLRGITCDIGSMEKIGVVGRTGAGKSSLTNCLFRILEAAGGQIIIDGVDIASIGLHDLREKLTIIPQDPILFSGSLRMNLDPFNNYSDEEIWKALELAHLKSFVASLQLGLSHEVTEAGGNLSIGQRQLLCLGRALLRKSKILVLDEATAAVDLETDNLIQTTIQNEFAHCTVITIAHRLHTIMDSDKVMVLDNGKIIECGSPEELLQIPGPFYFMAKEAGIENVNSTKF
MDR1, sequence (P08183 whole entry): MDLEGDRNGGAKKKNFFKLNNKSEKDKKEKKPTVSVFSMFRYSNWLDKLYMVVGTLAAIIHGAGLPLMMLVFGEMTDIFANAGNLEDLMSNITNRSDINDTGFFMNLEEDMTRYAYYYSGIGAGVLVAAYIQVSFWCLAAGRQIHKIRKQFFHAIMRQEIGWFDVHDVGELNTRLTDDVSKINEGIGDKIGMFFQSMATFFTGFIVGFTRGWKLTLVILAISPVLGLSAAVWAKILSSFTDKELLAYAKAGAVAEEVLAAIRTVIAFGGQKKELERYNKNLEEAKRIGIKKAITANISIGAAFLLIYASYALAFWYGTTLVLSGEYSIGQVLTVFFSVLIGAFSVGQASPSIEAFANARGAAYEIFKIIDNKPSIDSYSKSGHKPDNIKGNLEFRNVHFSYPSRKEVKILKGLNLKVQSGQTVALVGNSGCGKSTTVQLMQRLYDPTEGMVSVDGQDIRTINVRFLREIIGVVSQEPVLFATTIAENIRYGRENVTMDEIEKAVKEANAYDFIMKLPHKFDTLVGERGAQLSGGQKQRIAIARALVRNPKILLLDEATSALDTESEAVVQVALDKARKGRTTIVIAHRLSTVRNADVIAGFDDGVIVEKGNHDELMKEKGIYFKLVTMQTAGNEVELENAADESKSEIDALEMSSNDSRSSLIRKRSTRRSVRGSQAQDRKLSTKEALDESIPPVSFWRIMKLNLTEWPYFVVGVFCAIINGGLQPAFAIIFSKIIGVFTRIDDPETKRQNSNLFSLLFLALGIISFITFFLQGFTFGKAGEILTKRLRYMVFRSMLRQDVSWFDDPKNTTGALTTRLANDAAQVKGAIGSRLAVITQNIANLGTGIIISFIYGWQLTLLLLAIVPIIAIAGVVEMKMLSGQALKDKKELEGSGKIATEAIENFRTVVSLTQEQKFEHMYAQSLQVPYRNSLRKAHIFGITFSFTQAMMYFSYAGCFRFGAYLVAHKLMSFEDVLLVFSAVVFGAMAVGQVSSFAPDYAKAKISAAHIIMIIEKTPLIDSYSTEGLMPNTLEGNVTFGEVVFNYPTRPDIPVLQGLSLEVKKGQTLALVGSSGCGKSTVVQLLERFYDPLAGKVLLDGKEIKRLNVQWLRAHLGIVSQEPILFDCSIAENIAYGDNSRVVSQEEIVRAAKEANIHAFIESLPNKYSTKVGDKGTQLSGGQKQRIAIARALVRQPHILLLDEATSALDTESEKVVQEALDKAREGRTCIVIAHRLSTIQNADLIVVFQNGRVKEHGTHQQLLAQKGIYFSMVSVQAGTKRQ

As for `C=CCSc1nnc2n(-c3ccccc3)c(=O)c3c4c(sc3n12)CCC4` [Compound 9C06], in the data set with MCF7/VP cells, the “folds of sensitization of MCF7/VP cells to cisplatin” value (from here on “folds … to cisplatin”) stood at 1.5 folds, the “folds of sensitization of MCF7/VP cells to doxorubicin” value (“folds … to doxorubicin” for short) is recorded as 3.3 folds, the “folds of sensitization of MCF7/VP cells to etoposide” value (shortened to “folds … to etoposide”) was 12 folds and the “folds of sensitization of MCF7/VP cells to vincristine” value (from here on “folds … to vincristine”) came out at 16 folds. The “folds of sensitization of doxorubicin, cells expressing MRP1” value (shortened to “folds … cells expressing MRP1”) at MRP1 [1] was 3.3 folds. The “folds of sensitization of doxorubicin, cells expressing MRP2” value (“folds … cells expressing MRP2” for short) on MRP2 is given as 4.3 folds. The “folds of sensitization of doxorubicin, cells expressing MDR1” value (“folds … cells expressing MDR1” below) at MDR1 came out at 3.7 folds. The “folds of sensitization of doxorubicin, cells expressing MDR3” value (shortened to “folds … cells expressing MDR3”) with MDR3 was determined as 0.4 folds.

In the case of `CCN(CC)CCCNC(=O)c1cnn2c(C(F)(F)F)cc(-c3ccc(C)cc3)nc12` [Compound 4E10], in the data set with MCF7/VP cells, the “folds … to cisplatin” value was determined as 1.25 folds, the “folds … to doxorubicin” value was 3.2 folds, the “folds … to etoposide” value is 27 folds and the “folds … to vincristine” value was 12 folds. For the same molecule, the “folds … cells expressing MRP1” value at MRP1 [1] amounted to 3.7 folds. In addition, the “folds … cells expressing MRP2” value on MRP2 is reported as 7 folds. The “folds … cells expressing MDR1” value at MDR1 is 2.0 folds. Moreover, the “folds … cells expressing MDR3” value in the data set with MDR3 is reported as 0.6 folds.

As to `c1ccc(-c2cn3c4ccccc4nc3n2CCN2CCCCC2)cc1` [Compound 14C08], in the data set on MCF7/VP cells, the “folds … to cisplatin” value was found to be 1.05 folds, the “folds … to doxorubicin” value was found to be 4.0 folds, the “folds … to etoposide” value stood at 18 folds and the “folds … to vincristine” value is recorded as 14 folds. Besides, the “folds … cells expressing MRP1” value at MRP1 [1] is listed as 3.0 folds. Moreover, at MRP2, the “folds … cells expressing MRP2” value is 1.3 folds. Further, the “folds … cells expressing MDR1” value at MDR1 is on record as 3.7 folds. Also, in the data set on MDR3, the “folds … cells expressing MDR3” value came to 0.6 folds.

Turning to `O=C(NCCCN1CCOCC1)c1cnn2c(-c3ccccc3)cc(-c3ccccc3)nc12` [Compound 4H10], in the data set with MCF7/VP cells, the “folds … to cisplatin” value worked out at 1.2 folds, the “folds … to doxorubicin” value turned out to be 3.8 folds, the “folds … to etoposide” value is 58 folds and the “folds … to vincristine” value was 14.2 folds. For the same molecule, at MRP1 [1], the “folds … cells expressing MRP1” value stood at 4.1 folds. In addition, the “folds … cells expressing MRP2” value at MRP2 was 3.3 folds. Besides, at MDR1, the “folds … cells expressing MDR1” value is recorded as 4.5 folds. Besides, in the data set with MDR3, the “folds … cells expressing MDR3” value is 0.9 folds. For the same molecule, the “strength as inhibitor of daunorubicin efflux by MRP1” value at MRP1 [2] is recorded as “most potent inhibitor”. The “concentrations showing drug sensitization effect” value at MRP1 [3] is listed as “submicromolar”. Further, the “direct toxicity against NB cells” value in the data set with NB cells was “no direct toxicity”. Further, the “effect on mouse weight” value in data set [4] (30 days) is “did not adversely affect mouse weight”. Besides, the in vivo toxicity result in data set [4] (30 days of observation) is reported as “lack of in vivo toxicity”. Besides, the “effectiveness compared with BSO” value in the data set on NB is “much more effective than BSO”.

For the molecule `CC(Sc1nnc(-c2ccco2)n1-c1ccccc1)C(=O)NC(c1ccccc1)c1ccccc1` (stereo not shown) [Compound 4G05], in the data set with MCF7/VP cells, the “folds … to cisplatin” value was determined as 1.1 folds, the “folds … to doxorubicin” value was determined as 1.6 folds, the “folds … to etoposide” value worked out at 2 folds and the “folds … to vincristine” value came to 3 folds. On MRP1 [1], the “folds … cells expressing MRP1” value was determined as 1.75 folds. For the same molecule, the “folds … cells expressing MRP2” value on MRP2 amounted to 1.5 folds. The “folds … cells expressing MDR1” value at MDR1 is 4.6 folds. In the data set with MDR3, the “folds … cells expressing MDR3” value is reported as 2.4 folds.

Consider `COc1ccc2c(c1)c(CC(=O)O)c(C)n2C(=O)c1ccc(Cl)cc1` [Indomethacin], for which the “accumulation of vincristine and etoposide” value in the data set with GL15 and 8 MG cell lines is given as “increased the accumulation”.

Regarding `Cc1nnc(SCC(=O)N/N=C/c2cccc3cccnc23)n1-c1ccccc1` [Compound 17A08], in the data set on MCF7/VP cells, the “folds … to cisplatin” value is listed as 1.1 folds, the “folds … to doxorubicin” value was 3.6 folds, the “folds … to etoposide” value is 5 folds and the “folds … to vincristine” value is on record as 3 folds. The “folds … cells expressing MRP1” value at MRP1 [1] stood at 1.1 folds. Besides, the “folds … cells expressing MRP2” value on MRP2 stood at 1.4 folds. Besides, on MDR1, the “folds … cells expressing MDR1” value came to 2 folds. Besides, the “folds … cells expressing MDR3” value in the data set on MDR3 turned out to be 1.3 folds.

Take `O=C(NCCN1CCOCC1)c1cnn2c(-c3ccccc3)cc(-c3ccccc3)nc12` [Compound 4E11]: in the data set with MCF7/VP cells, the “folds … to cisplatin” value was found to be 1.1 folds, the “folds … to doxorubicin” value was determined as 2.7 folds, the “folds … to etoposide” value is listed as 34 folds and the “folds … to vincristine” value stood at 10.5 folds. The “folds … cells expressing MRP1” value on MRP1 [1] was 3.9 folds. The “folds … cells expressing MRP2” value at MRP2 is reported as 6.5 folds. The “folds … cells expressing MDR1” value on MDR1 is listed as 4.2 folds. In addition, the “folds … cells expressing MDR3” value in the data set on MDR3 worked out at 0.7 folds.

On to `CCCN(CCC)S(=O)(=O)c1ccc(C(=O)O)cc1` [probenecid], for which, in the data set with GL15 and 8 MG cell lines, the “accumulation of vincristine and etoposide” value is on record as “increased the accumulation”.

Source of the values: patent US8318724B2, “Small molecule inhibitors of MRP1 and other multidrug transporters” (The Cleveland Clinic Foundation, priority 2004, dated 2012).
